This is an account of results in US20240217973A1, “IMIDAZOPYRIDINE COMPOUNDS AND USE THEREOF” (MEDSHINE DISCOVERY INC., priority 2021, published 2024).

Structures are written as SMILES.

Data set [1] can be described thus: Hepatocyte metabolic stability experiment (HMS), H. The conditions noted are these: human, H hepatocytes, read-out: HMS CLint(liver). The class given is in vitro ADME. The protocol:
(§1) Experimental operations: 198 μL of hepatocyte suspension (0.51×10^6 cells/mL) was added to the preheated incubation plate, and 198 μL of culture medium without hepatocytes was added to T0-MC and T120-MC incubation plates for the culture medium control group, and all incubation plates were pre-incubated for 10 minutes in a 37° C. incubator. Then 2 μL of the working solution of the test and control compounds were added and mixed well, and the incubation plate was immediately put into the plate shaker in the incubator, the rotation speed was adjusted to about 650 rpm, and the timer and the reaction were started. 2 duplicate samples for each compound were prepared at each time point. Incubation conditions: 37° C., saturated humidity, and containing 5% CO2. In the test system, the final concentration of the test compound was 1 μM, the final concentration of the control compound was 3 μM, the final concentration of hepatocytes was 0.5×10^6 cells/mL, and the final concentration of the total organic solvent was 0.96%, of which the final concentration of DMSO was 0.1%. […] All samples were mixed and analyzed by LC-MS/MS method. […]

Data set [2] relates to HPBMC cells. The data set can be described thus: HPBMC experiment: CD69 on anti-human IgM stimulated B cells, flow cytometry. Type of data set: cell-based. The settings on record: B-cell, B cells isolated from PBMC, 48 hours. How it is done:
• 1) Medium: RPMI Medium 1640+1% P/S+10% FBS • 2) MACS buffer: 2% FBS+1 mM EDTA in DPBS • 3) Staining buffer: DPBS+2% FBS • 1.2 Dilution of Compounds and Anti-Human IgM
The initial concentration of the compound to be tested was […], 3-fold dilution, 9 points, and it was added to a 96 well plate after dilution, 50 μL/ well.
The anti-human IgM was diluted according to Table 2 below, and added to the 96 well plate after dilution, 50 μL/well.
• 1) PBMC was removed from a liquid nitrogen tank, then resuscitated and thawed in a 37° C. water bath; • 2) Using a B cell olation kit, B cells were isolated from PBMC according to the instructions, and their viability and number were calculated using a cell counter.
Table 10 Number and viability of PBMC and B cells • 3) The cells were resuspended with 1640 culture medium to a final concentration of 1 M/mL. • 4) The B cells were spread at 0.1 M/ well (100 μL) into a 96-well flat-bottom plate already containing the compound and anti-IgM. • 5) The plate was incubated in a 37° C. CO2 incubator for 48 hours; […]

Data set [3] can be described thus: Hepatocyte metabolic stability experiment (HMS), M. Type of data set: in vitro ADME. The conditions noted are these: mouse, M hepatocytes, read-out: HMS CLint(liver). The protocol: as §1
The nature of data set [4]: Hepatocyte metabolic stability experiment (HMS), D. The class given is in vitro ADME. The conditions noted are these: dog, D hepatocytes, read-out: HMS CLint(liver). The protocol: as §1
A short description of data set [5]: Pharmacokinetic evaluation of compounds in mice. The class given is in vivo, CD-1 mice. The conditions noted are these: mouse, plasma, CD-1 male mice. The protocol: Experimental purpose: To test the in vivo pharmacokinetic data of compounds in CD-1 mice.
The compound was mixed with the solvent 5% DMSO/5% Solutol/90% H2O, vortexed and sonicated to prepare a 0.5 mg/mL clear solution. CD-1 male mice aged 7 to 10 weeks were selected, and administered the candidate compound solution intravenously. Whole blood was collected for a certain period of time, and plasma was prepared. The drug concentration was analyzed by LC-MS/MS method, and pharmacokinetic parameters were calculated by Phoenix WinNonlin software (Pharsight Company, USA).
The compound was mixed with the solvent 5% DMSO/5% Solutol/90% H2O, vortexed and sonicated to prepare a 0.5 mg/mL clear solution. CD-1 male mice aged 7 to 10 weeks were selected, and administered the candidate compound solution orally. Whole blood was collected for a certain period of time, and plasma was prepared. The drug concentration was analyzed by LC-MS/MS method, and pharmacokinetic parameters were calculated by Phoenix WinNonlin software (Pharsight Company, USA).

[6] abbreviates: IV, 1.0 mg/kg (002), 1.2 mg/kg (003B).
[7] abbreviates: PO, 2.9 mg/kg (002), 2.85 mg/kg (003B).

In the case of `Nc1nccc2c1n(-c1ccc(Oc3ccccc3)cc1)c(=O)n2[C@@H]1CCCN(C(=O)/C=C/CF)C1` [Compound 002], the CLint scaled at 1 μM in data set [1] was 130 mL/min/kg. Besides, half-maximal inhibition in data set [2] (IC50) required 3.6 nM. Further, the CLint scaled at 1 μM in data set [3] turned out to be 702 mL/min/kg. Also, the CLint scaled at 1 μM in data set [4] amounted to 187 mL/min/kg. In data set [5] (setting [6]), the AUC(0-inf) (as a rule, total exposure, with the tail of the curve extrapolated) turned out to be 0.697 µM·h; the C0 was 4.19 µM; the Vd (commonly a proportionality between amount in the body and measured concentration, not a real space) worked out at 0.76 L/kg; the clearance (usually the volume of plasma or blood freed of the substance per unit of time) stood at 49 mL/min/kg. In data set [5] (setting [6]), the half-life (in general, the time needed for the level to fall by half in the phase considered) is 16.8 min. In addition, in data set [5] (setting [7]), the AUC(0-inf) turned out to be 0.83 µM·h; the Cmax – broadly, the peak of the concentration-time curve – came out at 1190 nM; the Tmax (usually the time from dosing to the highest level) turned out to be 4.98 min; the bioavailability – broadly, dose-corrected exposure relative to a reference, in per cent – is 39.7%. In data set [5] (setting [7]), this compound gave a half-life of 21 min.
